Assay results reported in patent US20200017496A1 (priority 2017, published 2020).
Read-outs that look alike come from different tables or passages of the source.

Experiments:
[1] = in vivo; design: species or system Swiss Mouse; details: male, Swiss, mouse, in vivo, 10 mg/kg
Experimental: Water and food were available ad libitum throughout the study. Mouse were handled in accordance with the institutional and national guidelines for the care and use of laboratory animals. […] Drugs were administered by oral gavage using feeding needle. […] Plasma samples were stored at -80° C. until bioanalysis. […] Plasma samples bioanalysis and data analysis The plasma samples (20 μl) were thawed at 0° C. […] Standard samples were prepared by spiking the blank plasma into concentrations 10-5 000 ng/ml and otherwise treated as the samples. […] Mass spectrometric detection involved electrospray ionization in the negative mode followed by multiple reaction monitoring of the drugs and internal standard transitions. Actual drug concentrations were deduced from interpolation of the standard curve. The pharmacokinetic parameters were calculated using XLfit (IDBS) and Excel (Microsoft) software, using standard non-compartmental methods. The intraduodenal bioavailability was calculated by dividing the AUC obtained from the intraduodenal administration by the AUC obtained from the intravenous administration.

[2] = system: Escherichia coli (ECO) isolates; assay: MIC of compounds alone and combined with antibacterials, broth microdilution (CLSI); type: cell-based
In short: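 Log-phase bacteria at a final 5·10^5 CFU/mL in cation-adjusted Mueller-Hinton broth were incubated 16-20 h at 35° C in ambient air with compound alone or with an antibacterial. MIC was the lowest concentration preventing visible growth; combination MIC of the antibacterial was read at each compound concentration.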

Compound: C=CC1=C(C(=O)O)N2C(=O)[C@@H](NC(=O)/C(=N\OCC(=O)O)c3csc(N)n3)[C@H]2SC1 [FIX, Cefixime]
- AUC(0-inf) ([1]; iv): 37200 ng·h/mL
- bioavailability ([1]; po): 45%
- MIC ATB in combination [2]: >128 µg/mL
- MIC ATB in combination ([2]; ECO 4133, AF1 @ 4 μg/mL): <=0.25 μg/mL
- MIC ATB in combination ([2]; ECO 4133, AF1 @ 8 μg/mL): <=0.25 μg/mL
- MIC ATB in combination ([2]; ECO 5302, AF1 @ 4 μg/mL): <=0.25 μg/mL
- MIC ATB in combination ([2]; ECO 5302, AF1 @ 8 μg/mL): <=0.25 μg/mL
- MIC ATB in combination ([2]; ECO 131119, AF1 @ 4 μg/mL): <=0.25 μg/mL
- MIC ATB in combination ([2]; ECO 131119, AF1 @ 8 μg/mL): <=0.25 μg/mL
- MIC ATB in combination ([2]; ECO 180070, AF1 @ 4 μg/mL): <=0.25 μg/mL
- MIC ATB in combination ([2]; ECO 180070, AF1 @ 8 μg/mL): <=0.25 μg/mL
- MIC ATB in combination ([2]; ECO 190314, AF1 @ 4 μg/mL): <=0.25 μg/mL
- MIC ATB in combination ([2]; ECO 190314, AF1 @ 8 μg/mL): <=0.25 μg/mL
- MIC ATB in combination ([2]; ECO 190317, AF1 @ 4 μg/mL): <=0.25 μg/mL
- MIC ATB in combination ([2]; ECO 190317, AF1 @ 8 μg/mL): <=0.25 μg/mL
- MIC ATB in combination ([2]; ECO 190457, AF1 @ 8 μg/mL): 0.031 µg/mL
- MIC ATB in combination ([2]; ECO 190549, AF1 @ 4 μg/mL): <=0.25 μg/mL
- MIC ATB in combination ([2]; ECO 190549, AF1 @ 8 μg/mL): <=0.25 μg/mL
- MIC ATB in combination ([2]; ECO 200159, AF1 @ 4 μg/mL): <=0.25 μg/mL
- MIC ATB in combination ([2]; ECO 200159, AF1 @ 8 μg/mL): <=0.25 μg/mL
- MIC ATB in combination ([2]; ECO 200259, AF1 @ 4 μg/mL): <=0.25 μg/mL
- MIC ATB in combination ([2]; ECO 200259, AF1 @ 8 μg/mL): <=0.25 μg/mL
- MIC ATB in combination ([2]; ECO 200344, AF1 @ 4 μg/mL): <=0.25 μg/mL
- MIC ATB in combination ([2]; ECO 200344, AF1 @ 8 μg/mL): <=0.25 μg/mL
- MIC ATB in combination ([2]; ECO 260096, AF1 @ 4 μg/mL): <=0.25 μg/mL
- MIC ATB in combination ([2]; ECO 260096, AF1 @ 8 μg/mL): <=0.25 μg/mL
- MIC ATB in combination ([2]; ECO 260304, AF1 @ 4 μg/mL): <=0.25 μg/mL
- MIC ATB in combination ([2]; ECO 260304, AF1 @ 8 μg/mL): <=0.25 μg/mL
- MIC ATB in combination ([2]; ECO 260508, AF1 @ 4 μg/mL): <=0.25 μg/mL
- MIC ATB in combination ([2]; ECO 260508, AF1 @ 8 μg/mL): <=0.25 μg/mL
- MIC ATB in combination ([2]; ECO RGN238, AF1 @ 4 μg/mL): <=0.25 μg/mL
- MIC ATB in combination ([2]; ECO RGN238, AF1 @ 8 μg/mL): <=0.25 μg/mL
- MIC ATB in combination ([2]; ECO UFR15, AF1 @ 4 μg/mL): <=0.25 μg/mL
- MIC ATB in combination ([2]; ECO UFR15, AF1 @ 8 μg/mL): <=0.25 μg/mL
- MIC ATB in combination ([2]; ECO UFR16, AF1 @ 4 μg/mL): <=0.25 μg/mL
- MIC ATB in combination ([2]; ECO UFR16, AF1 @ 8 μg/mL): <=0.25 μg/mL
- MIC ATB in combination ([2]; ECO UFR17, AF1 @ 8 μg/mL): 16 µg/mL
- MIC ATB in combination ([2]; ECO UFR18, AF1 @ 4 μg/mL): 16 µg/mL
- MIC ATB in combination ([2]; ECO UFR18, AF1 @ 8 μg/mL): 0.5 µg/mL
- MIC ATB in combination ([2]; ECO UFR19, AF1 @ 4 μg/mL): 16 µg/mL
- MIC ATB in combination ([2]; ECO UFR19, AF1 @ 8 μg/mL): <0.25 µg/mL
- MIC ATB in combination ([2]; ECO UFR20, AF1 @ 4 μg/mL): 1 µg/mL
- MIC ATB in combination ([2]; ECO UFR20, AF1 @ 8 μg/mL): 1 µg/mL
- MIC ATB in combination ([2]; ECO UFR61O, AF1 @ 4 μg/mL): 0.25 µg/mL
- MIC ATB in combination ([2]; ECO UFR62, AF1 @ 4 μg/mL): <=0.25 μg/mL
- MIC ATB in combination ([2]; ECO UFR62, AF1 @ 8 μg/mL): <=0.25 μg/mL
- MIC ATB in combination ([2]; ECO UFR74, AF1 @ 4 μg/mL): 32 µg/mL
- MIC ATB in combination ([2]; ECO UFR74, AF1 @ 8 μg/mL): 1 µg/mL
- MIC ATB in combination ([2]; ECO UFR86, AF1 @ 4 μg/mL): 0.5 µg/mL
- MIC ATB in combination ([2]; ECO UFR86, AF1 @ 8 μg/mL): <=0.25 μg/mL
- MIC ATB in combination ([2]; ECO UFR174, AF1 @ 4 μg/mL): <=0.25 μg/mL
- MIC ATB in combination ([2]; ECO UFR174, AF1 @ 8 μg/mL): <0.25 µg/mL
- MIC ATB in combination ([2]; ECO UFR175, AF1 @ 4 μg/mL): <=0.25 μg/mL
- MIC ATB in combination ([2]; ECO UFR175, AF1 @ 8 μg/mL): <=0.25 μg/mL
- MIC ATB in combination ([2]; ECO UFR176, AF1 @ 4 μg/mL): <=0.25 μg/mL
- MIC ATB in combination ([2]; ECO UFR176, AF1 @ 8 μg/mL): <=0.25 μg/mL
- MIC ATB in combination ([2]; ECO UFR184, AF1 @ 4 μg/mL): 8 µg/mL
- MIC ATB in combination ([2]; ECO UFR184, AF1 @ 8 μg/mL): <=0.25 μg/mL
- MIC ATB in combination ([2]; ECO UFR185, AF1 @ 4 μg/mL): 4 µg/mL
- MIC ATB in combination ([2]; ECO UFR185, AF1 @ 8 μg/mL): <0.25 µg/mL
- MIC ATB in combination ([2]; ECO UFR186, AF1 @ 4 μg/mL): <=0.25 μg/mL
- MIC ATB in combination ([2]; ECO UFR186, AF1 @ 8 μg/mL): <=0.25 μg/mL
- MIC ATB in combination ([2]; ECO UFR187, AF1 @ 4 μg/mL): <=0.25 μg/mL
- MIC ATB in combination ([2]; ECO UFR187, AF1 @ 8 μg/mL): <=0.25 μg/mL
- MIC ATB in combination ([2]; ECO UFR189, AF1 @ 4 μg/mL): <=0.25 μg/mL
- MIC ATB in combination ([2]; ECO UFR189, AF1 @ 8 μg/mL): <=0.25 μg/mL
- MIC ATB in combination ([2]; ECO UFR190, AF1 @ 4 μg/mL): <=0.25 μg/mL
- MIC ATB in combination ([2]; ECO UFR190, AF1 @ 8 μg/mL): <=0.25 μg/mL
- MIC ATB in combination ([2]; ECO UFR191, AF1 @ 4 μg/mL): <=0.25 μg/mL
- MIC ATB in combination ([2]; ECO UFR191, AF1 @ 8 μg/mL): <=0.25 μg/mL
- MIC ATB in combination ([2]; ECO UFR207, AF1 @ 4 μg/mL): <=0.25 μg/mL
- MIC ATB in combination ([2]; ECO UFR207, AF1 @ 8 μg/mL): <=0.25 μg/mL
- MIC ATB in combination ([2]; ECO UFR208, AF1 @ 4 μg/mL): 64 µg/mL
- MIC ATB in combination ([2]; ECO UFR208, AF1 @ 8 μg/mL): 32 µg/mL
- MIC ATB in combination ([2]; ECO UFR209, AF1 @ 8 μg/mL): 0.063 µg/mL
- MIC ATB in combination ([2]; ECO UFR210, AF1 @ 4 μg/mL): <=0.25 μg/mL
- MIC ATB in combination ([2]; ECO UFR210, AF1 @ 8 μg/mL): <=0.25 μg/mL
- MIC ATB in combination ([2]; ECO UFR211, AF1 @ 4 μg/mL): <=0.25 μg/mL
- MIC ATB in combination ([2]; ECO UFR211, AF1 @ 8 μg/mL): <=0.25 μg/mL
- MIC ATB in combination ([2]; ECO UFR212, AF1 @ 4 μg/mL): 64 µg/mL
